{"source": "paper PMC4043446", "about": "(Arteriosclerosis, thrombosis, and vascular biology, 2013)", "tested_on": "LPS-challenged mice", "assay": "LPS-induced mortality in mouse endotoxemia model", "type": "in vivo, C57BL/6 mice", "settings": "5 mg/kg retro-orbital prior to i.p. LPS; 10 mice/group; Kaplan-Meier", "data": [{"substance": "Integrilin", "values": [{"measurement": "LPS-induced mortality (Integrilin)", "value": "showed a trend in reducing"}]}]}
